Data reported in the NIST ThermoML archive (doi:10.1016/j.tca.2016.05.001).
Several values for one entry are separate records, joined by “and”; a condition that tells them apart may be missing. Equal values may be shown once.

Legend:
[1] = for Triple point temperature: DSC
[2] = Molar enthalpy of transition or fusion; settings: Crystal; DSC

c1cnc2c(c1)ccc1ncccc12 [1,5-diazaphenanthrene]
[1]
Settings	vapor or sublimation pressure
315 K, Crystal, Torsion effusion method	3.8e-05 kPa
315.1 K, Crystal, Torsion effusion method	3.8e-05 kPa
317.3 K, Crystal, Torsion effusion method	4.7e-05 kPa
317.9 K, Crystal, Torsion effusion method	5.7e-05 kPa
318.6 K, Crystal, Torsion effusion method	5.7e-05 kPa
319.5 K, Crystal, Torsion effusion method	6.7e-05 kPa
320.5 K, Crystal, Torsion effusion method	7.6e-05 kPa
320.8 K, Crystal, Torsion effusion method	7.6e-05 kPa
322.6 K, Crystal, Torsion effusion method	0.0001 kPa
322.9 K, Crystal, Torsion effusion method	0.00011 kPa
323 K, Crystal, Torsion effusion method	0.000114 kPa
323.8 K, Crystal, Torsion effusion method	0.00011 kPa
325.3 K, Crystal, Torsion effusion method	0.000142 kPa
325.6 K, Crystal, Torsion effusion method	0.00014 kPa
326 K, Crystal, Torsion effusion method	0.00015 kPa
326.2 K, Crystal, Torsion effusion method	0.00017 kPa
327.5 K, Crystal, Torsion effusion method	0.00021 kPa
328.2 K, Crystal, Torsion effusion method	0.000208 kPa and 0.00021 kPa
328.7 K, Crystal, Torsion effusion method	0.00023 kPa
329.1 K, Crystal, Torsion effusion method	0.00025 kPa
329.6 K, Crystal, Torsion effusion method	0.00026 kPa
330.5 K, Crystal, Torsion effusion method	0.00028 kPa
331 K, Crystal, Torsion effusion method	0.0003 kPa
331.5 K, Crystal, Torsion effusion method	0.00033 kPa
332 K, Crystal, Torsion effusion method	0.00032 kPa
333 K, Crystal, Torsion effusion method	0.00041 kPa
334.5 K, Crystal, Torsion effusion method	0.00044 kPa
334.9 K, Crystal, Torsion effusion method	0.00051 kPa
335 K, Crystal, Torsion effusion method	0.00047 kPa
336.2 K, Crystal, Torsion effusion method	0.00061 kPa
336.5 K, Crystal, Torsion effusion method	0.00055 kPa
337.7 K, Crystal, Torsion effusion method	0.00072 kPa
338.3 K, Crystal, Torsion effusion method	0.00072 kPa
339.3 K, Crystal, Torsion effusion method	0.00072 kPa
340 K, Crystal, Torsion effusion method	0.00095 kPa and 0.00091 kPa
340.4 K, Crystal, Torsion effusion method	0.00087 kPa
341.5 K, Crystal, Torsion effusion method	0.00112 kPa
342.6 K, Crystal, Torsion effusion method	0.00108 kPa
343.5 K, Crystal, Torsion effusion method	0.00127 kPa
380.1 K, Liquid, Rate of evaporation	0.023 kPa
382.1 K, Liquid, Rate of evaporation	0.028 kPa
385.6 K, Liquid, Rate of evaporation	0.032 kPa
388.2 K, Liquid, Rate of evaporation	0.037 kPa
390.3 K, Liquid, Rate of evaporation	0.043 kPa
393.1 K, Liquid, Rate of evaporation	0.05 kPa
395.6 K, Liquid, Rate of evaporation	0.057 kPa
398.1 K, Liquid, Rate of evaporation	0.065 kPa
403.1 K, Liquid, Rate of evaporation	0.086 kPa
405.6 K, Liquid, Rate of evaporation	0.097 kPa
408.1 K, Liquid, Rate of evaporation	0.113 kPa
410.9 K, Liquid, Rate of evaporation	0.132 kPa
413.1 K, Liquid, Rate of evaporation	0.145 kPa
418.1 K, Liquid, Rate of evaporation	0.187 kPa
423.1 K, Liquid, Rate of evaporation	0.24 kPa
428.1 K, Liquid, Rate of evaporation	0.302 kPa

Settings	Triple point temperature [K]
[1], Crystal	351.7

Settings	Molar enthalpy of transition or fusion [kcal/mol]
[2]	6.12

c1cnc2c(c1)ccc1cccnc12 [1,10-phenanthroline]
[1]
Settings	vapor or sublimation pressure [kPa]
308.1 K, Crystal, Calculated from knudsen effusion weight loss	8.3e-07
313.1 K, Crystal, Calculated from knudsen effusion weight loss	1.76e-06
318.1 K, Crystal, Calculated from knudsen effusion weight loss	3.3e-06
320.9 K, Crystal, Calculated from knudsen effusion weight loss	4.6e-06
323.1 K, Crystal, Calculated from knudsen effusion weight loss	5.5e-06
325.8 K, Crystal, Calculated from knudsen effusion weight loss	8e-06
327.9 K, Crystal, Calculated from knudsen effusion weight loss	9.9e-06
330.9 K, Crystal, Calculated from knudsen effusion weight loss	1.53e-05
332.8 K, Crystal, Calculated from knudsen effusion weight loss	1.71e-05
335.7 K, Crystal, Calculated from knudsen effusion weight loss	2.6e-05
337.7 K, Crystal, Calculated from knudsen effusion weight loss	3e-05
340.6 K, Crystal, Calculated from knudsen effusion weight loss	4.2e-05
342.6 K, Crystal, Calculated from knudsen effusion weight loss	5.1e-05
345.5 K, Crystal, Calculated from knudsen effusion weight loss	7.7e-05
345.6 K, Crystal, Calculated from knudsen effusion weight loss	7.5e-05
347.5 K, Crystal, Calculated from knudsen effusion weight loss	9.2e-05
350.8 K, Crystal, Calculated from knudsen effusion weight loss	0.000131
352.7 K, Crystal, Calculated from knudsen effusion weight loss	0.000148
354.7 K, Crystal, Calculated from knudsen effusion weight loss	0.000194
357.7 K, Crystal, Calculated from knudsen effusion weight loss	0.00024
358.6 K, Crystal, Calculated from knudsen effusion weight loss	0.00025
360.5 K, Crystal, Calculated from knudsen effusion weight loss	0.0003
360.6 K, Crystal, Calculated from knudsen effusion weight loss	0.00033
361.8 K, Crystal, Calculated from knudsen effusion weight loss	0.00034
362.5 K, Crystal, Calculated from knudsen effusion weight loss	0.00038
363.4 K, Crystal, Calculated from knudsen effusion weight loss	0.0004
365 K, Crystal, Calculated from knudsen effusion weight loss	0.00046
366.3 K, Crystal, Calculated from knudsen effusion weight loss	0.00052
367.4 K, Crystal, Calculated from knudsen effusion weight loss	0.0006
367.6 K, Crystal, Calculated from knudsen effusion weight loss	0.00059
369.3 K, Crystal, Calculated from knudsen effusion weight loss	0.00069
370.9 K, Crystal, Calculated from knudsen effusion weight loss	0.0008
372.2 K, Crystal, Calculated from knudsen effusion weight loss	0.0009
374 K, Crystal, Calculated from knudsen effusion weight loss	0.00107
375.1 K, Crystal, Calculated from knudsen effusion weight loss	0.00119
377.2 K, Crystal, Calculated from knudsen effusion weight loss	0.0014
378.1 K, Crystal, Calculated from knudsen effusion weight loss	0.00154
380.1 K, Crystal, Calculated from knudsen effusion weight loss	0.00182
381 K, Crystal, Calculated from knudsen effusion weight loss	0.00199
382.8 K, Crystal, Calculated from knudsen effusion weight loss	0.00229
384.2 K, Crystal, Calculated from knudsen effusion weight loss	0.00264
385.6 K, Crystal, Calculated from knudsen effusion weight loss	0.00292
387.1 K, Crystal, Calculated from knudsen effusion weight loss	0.00335
393.2 K, Liquid, Rate of evaporation	0.0054
395.9 K, Liquid, Rate of evaporation	0.0061
398.6 K, Liquid, Rate of evaporation	0.0073
401.3 K, Liquid, Rate of evaporation	0.0084
404.1 K, Liquid, Rate of evaporation	0.0094
406.8 K, Liquid, Rate of evaporation	0.0113
409.5 K, Liquid, Rate of evaporation	0.0131
412.3 K, Liquid, Rate of evaporation	0.0147
415 K, Liquid, Rate of evaporation	0.0173
417.7 K, Liquid, Rate of evaporation	0.0206
420.5 K, Liquid, Rate of evaporation	0.024

Settings	Triple point temperature [K]
[1], Crystal	390.9

Settings	Molar enthalpy of transition or fusion [kcal/mol]
[2]	3.2

c1cnc2ccc3ncccc3c2c1 [4,7-phenanthroline]
[1]
Settings	vapor or sublimation pressure
336.8 K, Crystal, Torsion effusion method	2.8e-05 kPa
337.1 K, Crystal, Torsion effusion method	2.8e-05 kPa
339.5 K, Crystal, Torsion effusion method	3.8e-05 kPa
340 K, Crystal, Torsion effusion method	3.8e-05 kPa
340.1 K, Crystal, Torsion effusion method	3.8e-05 kPa
341 K, Crystal, Torsion effusion method	4.7e-05 kPa
341.9 K, Crystal, Torsion effusion method	4.7e-05 kPa
342.8 K, Crystal, Torsion effusion method	5.7e-05 kPa
342.9 K, Crystal, Torsion effusion method	5.7e-05 kPa
343.3 K, Crystal, Torsion effusion method	5.7e-05 kPa
346 K, Crystal, Torsion effusion method	8.5e-05 kPa
346.6 K, Crystal, Torsion effusion method	9.4e-05 kPa
346.7 K, Crystal, Torsion effusion method	9.4e-05 kPa
348.3 K, Crystal, Torsion effusion method	0.000114 kPa
349 K, Crystal, Torsion effusion method	0.000114 kPa
349.4 K, Crystal, Torsion effusion method	0.000133 kPa
350.6 K, Crystal, Torsion effusion method	0.000151 kPa
350.8 K, Crystal, Torsion effusion method	0.000133 kPa
351.7 K, Crystal, Torsion effusion method	0.00017 kPa
351.8 K, Crystal, Torsion effusion method	0.00017 kPa
352.7 K, Crystal, Torsion effusion method	0.00019 kPa
352.8 K, Crystal, Torsion effusion method	0.00017 kPa
354.4 K, Crystal, Torsion effusion method	0.000208 kPa
354.7 K, Crystal, Torsion effusion method	0.000219 kPa
354.8 K, Crystal, Torsion effusion method	0.000228 kPa
355.5 K, Crystal, Torsion effusion method	0.000264 kPa
355.7 K, Crystal, Torsion effusion method	0.000247 kPa
355.8 K, Crystal, Torsion effusion method	0.000247 kPa
356.4 K, Crystal, Torsion effusion method	0.000264 kPa
358.2 K, Crystal, Torsion effusion method	0.00034 kPa and 0.000323 kPa
358.7 K, Crystal, Torsion effusion method	0.000361 kPa
359.4 K, Crystal, Torsion effusion method	0.000379 kPa
360.2 K, Crystal, Torsion effusion method	0.000415 kPa
360.5 K, Crystal, Torsion effusion method	0.000436 kPa and 0.000415 kPa
361.4 K, Crystal, Torsion effusion method	0.000512 kPa
362.2 K, Crystal, Torsion effusion method	0.000472 kPa
363.1 K, Crystal, Torsion effusion method	0.000533 kPa
363.2 K, Crystal, Torsion effusion method	0.000571 kPa
364.1 K, Crystal, Torsion effusion method	0.000625 kPa
366.2 K, Crystal, Torsion effusion method	0.000819 kPa and 0.000741 kPa
368.4 K, Crystal, Torsion effusion method	0.000951 kPa
368.7 K, Crystal, Torsion effusion method	0.00102 kPa
369.6 K, Crystal, Torsion effusion method	0.001041 kPa
463.1 K, Liquid, Rate of evaporation	1.495 kPa
468.1 K, Liquid, Rate of evaporation	1.882 kPa
473.1 K, Liquid, Rate of evaporation	2.253 kPa
477.9 K, Liquid, Rate of evaporation	2.67 kPa
481.9 K, Liquid, Rate of evaporation	3.103 kPa
486.5 K, Liquid, Rate of evaporation	4.064 kPa
492.1 K, Liquid, Rate of evaporation	5.014 kPa
496.2 K, Liquid, Rate of evaporation	6.311 kPa

Settings	Triple point temperature [K]
[1], Crystal	444.1

Settings	Molar enthalpy of transition or fusion [kcal/mol]
[2]	5.35
